The source of these data is patent US20150232856A1, “TELOMERASE INHIBITORS FOR USE IN THERAPY” (AGENCY FOR SCIENCE, TECHNOLOGY AND RESEARCH, priority 2012, published 2015).

In this data set the test system is A2780cp cells. Nature of the data set: Colony formation assay. The settings on record: significantly rescued by ectopic expression of p65 (FIGS. 1G & H). The data set is classed as cell-based, human.

Procedure: F. Colony formation assay: A2780cp cells were infected with p65 expressing or GFP (Cntrl) virus followed by plating 1000 cells per condition. The cells were then treated with 2 μM MST312 or DMSO control for 2 weeks followed by staining with crystal violet after 12 days. Number of colonies was counted from duplicate plates.

Take “sh-hTERT: shRNA directed against hTERT, SEQ ID NO: 48 (CATTTCATCAGCAAGTTTGGA)”: the “colony forming ability of cells” value is “reduction in colony forming ability”.
